Literature values, collected in patent US20100239661A1, “PHARMACEUTICAL COMPOSITIONS OF URSODIOL” (priority 2006, published 2010).
Read-outs that look alike come from different tables or passages of the source.

Key:
[1] = for oral absorption: following oral administration
[2] = unconjugated ursodiol, healthy subjects
[3] = not given; remark: listed apart in the source

For C[C@H](CCC(=O)O)[C@H]1CC[C@H]2[C@@H]3[C@@H](O)C[C@@H]4C[C@H](O)CC[C@]4(C)[C@H]3CC[C@]12C [Ursodiol, 3α,7β-dihydroxy-5β-cholan-24-oic acid], which solubility (in chloroform) is on record?
The solubility was “slightly soluble”.

And the solubility (in ethanol)?
Its solubility is “freely soluble”.

What about the solubility (in ether) of the same molecule?
Its solubility is “sparingly soluble”.

And the solubility (in glacial acetic acid)?
The solubility was “freely soluble”.

And the solubility (in water)?
The solubility was “practically insoluble”.

What about the “share of biliary and plasma bile acids” value ([1]; chronic dose of 13 to 15 mg/kg/day) of the same molecule?
The value was 30-50%.

What about the oral absorption [1] of the same molecule?
The oral absorption was “rapid and complete”.

And the oral absorption ([1]; listed as ursodiol)?
Its oral absorption is “incomplete”.

What about the hepatic extraction ([1]; once absorbed, in the absence of liver disease) of the same molecule?
The hepatic extraction was “about 50%”.

And the urinary excretion ([1]; with treatment, except in severe cholestatic liver disease)?
The urinary excretion was “less than 1%”.

And the “bound to plasma protein” value [2]?
Its value is “at least 70%”.

What about the “solubility (characterisation)” value [3] of the same molecule?
The value was “low solubility”.
